# Experimental data from ChEMBL document CHEMBL6115036, “Exploration of membrane-active cephalosporin derivatives as potent antibacterial agents against Staphylococcus aureus biofilms and persisters” (Eur J Med Chem, 2025).
# The source made the active and inactive calls. No cut-off for these calls is given here.
# What was measured:
# [1] = tested on: Staphylococcus aureus; experiment: Antibacterial activity against Staphylococcus aureus infected in Kunming mouse model of subcutaneous abscess assessed as surviving bacteria in skin tissue at 10 mg/kg, sc measured after 48 hrs relative to control; type: functional
# [2] = tested on: Staphylococcus aureus; experiment: Antibacterial activity against Staphylococcus aureus infected in Kunming mouse model of subcutaneous abscess assessed as reduction in bacterial load in skin tissue at 10 mg/kg, sc measured after 48 hrs relative to control; type: functional; set-up: scale not given: the % may be the effect or the level left
# [3] = tested on: Staphylococcus aureus; experiment: Antibacterial activity against Staphylococcus aureus infected in Kunming mouse model of subcutaneous abscess assessed as reduction in number of bacteria in skin tissue at 5 to 10 mg/kg, sc measured after 48 hrs; type: functional, organism-based; conditions: dose 5-10 mg/kg
# [4] = tested on: Staphylococcus aureus; experiment: Inhibition of biofilm formation in Staphylococcus aureus assessed as reduction in number of live bacterial count at 16 times MIC incubated for 24 hrs; type: functional
# [5] = tested on: Staphylococcus aureus; experiment: Inhibition of biofilm formation in Staphylococcus aureus at 16 times MIC incubated for 24 hrs; type: functional, organism-based
# [6] = tested on: Enterococcus faecalis; experiment: Antimicrobial activity against Enterococcus faecalis incubated for 16 to 18 hrs by broth dilution assay; type: functional; conditions: time 16-18 hrs
# [7] = tested on: Staphylococcus aureus; experiment: Antimicrobial activity against Staphylococcus aureus incubated for 16 to 18 hrs by broth dilution assay; type: functional; conditions: time 16-18 hrs
# [8] = tested on: Stenotrophomonas maltophilia; experiment: Antimicrobial activity against Stenotrophomonas maltophilia incubated for 16 to 18 hrs by broth dilution assay; type: functional; conditions: time 16-18 hrs
# [9] = tested on: Escherichia coli; experiment: Antimicrobial activity against Escherichia coli incubated for 16 to 18 hrs by broth dilution assay; type: functional; conditions: time 16-18 hrs
# [10] = Hemolytic activity in sheep red blood cells incubated for 1 hr; type: toxicity, cell-based, Ovis aries, Erythrocyte
# [11] = tested on: Staphylococcus aureus; experiment: Induction of cytoplasmic membrane depolarization in Staphylococcus aureus assessed as increase in fluorescence intensity at 32 ug/ml measured for 20 mins by DiSC3(5) dye based analysis; type: functional, organism-based; conditions: dose 32.0 µg/ml
# [12] = tested on: Staphylococcus aureus; experiment: Induction of inner membrane permeability in Staphylococcus aureus assessed as increase in fluorescence intensity at 32 ug/ml measured for 20 mins by PI dye based analysis; type: functional, organism-based; conditions: dose 32.0 µg/ml
# [13] = tested on: Staphylococcus aureus; experiment: Disruption of cell membrane in Staphylococcus aureus assessed as nucleic acid leakage measured after 2 hrs by fluorescence based analysis; type: functional, organism-based; conditions: dose 8-32 µg/ml
# [14] = tested on: Staphylococcus aureus; experiment: Disruption of cell membrane in Staphylococcus aureus assessed as protein leakage measured after 2 hrs by fluorescence based analysis; type: functional, organism-based; conditions: dose 8-32 µg/ml
# [15] = tested on: Staphylococcus aureus; experiment: Bactericidal activity against Staphylococcus aureus assessed as reduction in bacterial colony count at 4 to 8 times MIC incubated for 8 hrs by time kill assay; type: functional, organism-based
# [16] = tested on: Staphylococcus aureus; experiment: Antibacterial activity against Staphylococcus aureus in presence of 50% sheep plasma; type: functional, organism-based
# [17] = tested on: Staphylococcus aureus; experiment: Antibacterial activity against Staphylococcus aureus in presence of 50% FBS; type: functional, organism-based
# [18] = tested on: Staphylococcus aureus; experiment: Bactericidal activity against Staphylococcus aureus measured for 3 to 6 hrs in presence of 50% sheep plasma; type: functional, organism-based; conditions: time 3-6 hrs
# [19] = tested on: Staphylococcus aureus; experiment: Induction of resistance development in Staphylococcus aureus at sub-MIC measured after 20 passages; type: functional, organism-based
# [20] = tested on: Staphylococcus aureus; experiment: Induction of resistance development in drug-resistant Staphylococcus aureus at sub-MIC measured after 20 passages in presence of norfloxacin; type: functional, organism-based
# [21] = tested on: Staphylococcus aureus; experiment: Induction of resistance development in drug-resistant Staphylococcus aureus at sub-MIC measured after 20 passages in presence of ciprofloxacin; type: functional, organism-based
# [22] = tested on: Staphylococcus aureus; experiment: Induction of resistance development in drug-resistant Staphylococcus aureus at sub-MIC measured after 20 passages in presence of levofloxacin; type: functional, organism-based
# [23] = tested on: Staphylococcus aureus; experiment: Induction of resistance development in drug-resistant Staphylococcus aureus at sub-MIC measured after 20 passages in presence of linezolid; type: functional, organism-based
# [24] = tested on: Staphylococcus aureus; experiment: Induction of resistance development in drug-resistant Staphylococcus aureus at sub-MIC measured after 20 passages in presence of rifampicin; type: functional, organism-based
# [25] = tested on: Staphylococcus aureus; experiment: Induction of resistance development in drug-resistant Staphylococcus aureus at sub-MIC measured after 20 passages in presence of vancomycin; type: functional, organism-based
# [26] = tested on: Staphylococcus aureus; experiment: Induction of resistance development in drug-resistant Staphylococcus aureus at sub-MIC measured after 20 passages in presence of cefuroxime sodium; type: functional, organism-based
# [27] = tested on: Staphylococcus aureus; experiment: Induction of resistance development in drug-resistant Staphylococcus aureus at sub-MIC measured after 20 passages in presence of ampicillin sodium; type: functional, organism-based
# [28] = tested on: Staphylococcus aureus; experiment: Inhibition of metabolic activity in Staphylococcus aureus incubated for 6 hrs by Alamar blue assay; type: functional, organism-based
# [29] = tested on: Staphylococcus aureus; experiment: Induction of intracellular ROS accumulation in Staphylococcus aureus incubated overnight by DCFH-DA dye based analysis; type: functional, organism-based
# [30] = tested on: Staphylococcus aureus; experiment: Antibacterial activity against Staphylococcus aureus assessed as inhibition of bacterial growth at stationary phase at 32 times MIC incubated for 4 hrs; type: functional, organism-based
# [31] = tested on: Staphylococcus aureus; experiment: Antibacterial activity against rifampicin-induced persistant Staphylococcus aureus assessed as decrease in CFU at 16 times MIC measured for 10 hrs; type: functional
# [32] = tested on: Staphylococcus aureus; experiment: Bactericidal activity against rifampicin-induced persistant Staphylococcus aureus at 32 times MIC measured for 10 hrs; type: functional, organism-based
# [33] = tested on: Staphylococcus aureus; experiment: Inhibition of biofilm formation in Staphylococcus aureus assessed as decrease in bacterial count at 32 times MIC incubated for 24 hrs by CLSM analysis; type: functional, organism-based
# [34] = tested on: Staphylococcus aureus; experiment: Inhibition of biofilm formation in Staphylococcus aureus assessed as punctate distribution at 32 times MIC incubated for 24 hrs by CLSM analysis; type: functional, organism-based
# [35] = Cytotoxicity against human HeLa cells incubated for 24 hrs by CCK8 assay; type: toxicity, cell-based
# [36] = Cytotoxicity against HUVEC cells incubated for 24 hrs by CCK8 assay; type: toxicity, cell-based; conditions: human
# [37] = tested on: Staphylococcus aureus; experiment: Antibacterial activity against Staphylococcus aureus infected in Kunming mouse model of subcutaneous abscess assessed as decrease in neutrophil level in skin tissue at 5 mg/kg, sc measured after 48 hrs by H and E staining based analysis; type: functional, organism-based
# [38] = tested on: Staphylococcus aureus; experiment: Antibacterial activity against Staphylococcus aureus infected in Kunming mouse model of subcutaneous abscess assessed as decrease in inflammation in skin tissue at 5 mg/kg, sc measured after 48 hrs by H and E staining based analysis; type: functional, organism-based
# [39] = Toxicity in Kunming mouse model of subcutaneous abscess infected with Staphylococcus aureus assessed as damage in heart at 5 to 10 mg/kg, sc measured after 48 hrs by H and E staining based analysis; type: organism-based; conditions: in vivo, dose 5-10 mg/kg
# [40] = Toxicity in Kunming mouse model of subcutaneous abscess infected with Staphylococcus aureus assessed as damage in liver at 5 to 10 mg/kg, sc measured after 48 hrs by H and E staining based analysis; type: organism-based; conditions: in vivo, dose 5-10 mg/kg
# [41] = Toxicity in Kunming mouse model of subcutaneous abscess infected with Staphylococcus aureus assessed as damage in spleen at 5 to 10 mg/kg, sc measured after 48 hrs by H and E staining based analysis; type: organism-based; conditions: in vivo, dose 5-10 mg/kg
# [42] = Toxicity in Kunming mouse model of subcutaneous abscess infected with Staphylococcus aureus assessed as damage in lung at 5 to 10 mg/kg, sc measured after 48 hrs by H and E staining based analysis; type: organism-based; conditions: in vivo, dose 5-10 mg/kg
# [43] = Toxicity in Kunming mouse model of subcutaneous abscess infected with Staphylococcus aureus assessed as damage in kidney at 5 to 10 mg/kg, sc measured after 48 hrs by H and E staining based analysis; type: organism-based; conditions: in vivo, dose 5-10 mg/kg
# [44] = Toxicity in Kunming mouse model of subcutaneous abscess infected with Staphylococcus aureus assessed as histopathological abnormalities in heart at 5 to 10 mg/kg, sc measured after 48 hrs by H and E staining based analysis; type: organism-based; conditions: in vivo, dose 5-10 mg/kg
# [45] = Toxicity in Kunming mouse model of subcutaneous abscess infected with Staphylococcus aureus assessed as histopathological abnormalities in liver at 5 to 10 mg/kg, sc measured after 48 hrs by H and E staining based analysis; type: organism-based; conditions: in vivo, dose 5-10 mg/kg
# [46] = Toxicity in Kunming mouse model of subcutaneous abscess infected with Staphylococcus aureus assessed as histopathological abnormalities in spleen at 5 to 10 mg/kg, sc measured after 48 hrs by H and E staining based analysis; type: organism-based; conditions: in vivo, dose 5-10 mg/kg
# [47] = Toxicity in Kunming mouse model of subcutaneous abscess infected with Staphylococcus aureus assessed as histopathological abnormalities in lung at 5 to 10 mg/kg, sc measured after 48 hrs by H and E staining based analysis; type: organism-based; conditions: in vivo, dose 5-10 mg/kg
# [48] = Toxicity in Kunming mouse model of subcutaneous abscess infected with Staphylococcus aureus assessed as histopathological abnormalities in kidney at 5 to 10 mg/kg, sc measured after 48 hrs by H and E staining based analysis; type: organism-based; conditions: in vivo, dose 5-10 mg/kg
smiles,measurement,setting,value
CCCCCCCCCCCCCCCC[n+]1ccc(-c2cc[n+](CC3=C(C(=O)[O-])N4C(=O)[C@@H](NC(=O)Cc5ccccc5)[C@H]4SC3)cc2)cc1.O=C([O-])C(F)(F)F,Activity,[1],0.13%
same,Activity,[2],99.87%
same,Activity,[3],Active
same,Activity,[4],~1 10^8CFU/ml
same,inhibition,[5],"Active; Compound Activity Better Than Vancomycin, Rifampicin And Cephalothin"
same,MIC,[6],32 µg/mL
same,MIC,[7],4 µg/mL
same,MIC,[8],128 µg/mL
same,MIC,[9],128 µg/mL
same,HC50 at 1 h,[10],112 µg/mL
same,Activity,[11],Active
same,Activity,[12],Active
same,Activity,[13],Dose-dependent-effect
same,Activity,[14],Dose-dependent-effect
same,Activity,[15],Active
same,Activity,[16],Active; Mic Value Of Compound In Plasma Was Equal To Mic In Mhb Medium
same,Activity,[17],Active; Mic Value Of Compound In Serum Was Equal To Mic In Mhb Medium
same,Activity,[18],Active
same,Activity,[19],inactive
same,Activity,[20],inactive
same,Activity,[21],inactive
same,Activity,[22],inactive
same,Activity,[23],inactive
same,Activity,[24],inactive
same,Activity,[25],inactive
same,Activity,[26],inactive
same,Activity,[27],inactive
same,inhibition,[28],Dose-dependent-effect
same,Activity,[29],Dose-dependent-effect
same,inhibition,[30],Active
same,Activity,[31],~1 10^5CFU/ml
same,Activity,[32],Active
same,inhibition,[33],Active
same,inhibition,[34],Active
same,CC50 at 24 h,[35],34.7 µg/mL
same,CC50 at 24 h,[36],15.7 µg/mL
same,Activity,[37],Active
same,Activity,[38],Active
same,Activity,[39],Non-toxic
same,Activity,[40],Non-toxic
same,Activity,[41],Non-toxic
same,Activity,[42],Non-toxic
same,Activity,[43],Non-toxic
same,Activity,[44],Non-toxic
same,Activity,[45],Non-toxic
same,Activity,[46],Non-toxic
same,Activity,[47],Non-toxic
same,Activity,[48],Non-toxic
